{"source": "patent US20220133847A1", "about": "“COMPOSITIONS AND METHODS FOR ALLEVIATING PAIN” (priority 2020, published 2022)", "key": {"[1]": {"details": "in vivo"}, "[2]": {"description": "FIG. 5. […] Animals were sacrificed, and tissues were harvested four hours post-injection.\nA His-tagging method was used to assess the brain-penetrance of peptide therapeutics (Westlund et al., 2021, Neurobiol Pain 10:100067). Briefly, a His-tagged TAT-C3P peptide with the sequence […] (SEQ ID NO: 3) was ordered from Genscript. Protein content was assessed with Western blots using standard methods. Briefly, the sample protein was denatured, followed by gel electrophoresis to separate proteins by molecular weight. An anti-His-tag monoclonal antibody (C-terminal A01857, GenScript) that binds to the His-tag conjugated to the TAT-C3P peptide or anti-β-actin antibody (ab8226, Abcam, Cambridge, United Kingdom) was applied to the electrophoresis membrane. After washing off the antibody, specific secondary antibodies were added which recognized and bound to the primary antibodies. The secondary antibody was visualized through immunofluorescence probe attached to the secondary antibody, allowing indirect detection, validation, and semi-quantitative assessment of the specific target protein."}, "T-type Ca2+ channels": {"test_system": "T-type Ca2+ channels", "details": "patients; cited from earlier work"}, "Cav3.3 channels": {"biological_target": "Cav3.3 channels (Homo sapiens, UniProt Q9P0X4)", "sequence (Q9P0X4 whole entry)": "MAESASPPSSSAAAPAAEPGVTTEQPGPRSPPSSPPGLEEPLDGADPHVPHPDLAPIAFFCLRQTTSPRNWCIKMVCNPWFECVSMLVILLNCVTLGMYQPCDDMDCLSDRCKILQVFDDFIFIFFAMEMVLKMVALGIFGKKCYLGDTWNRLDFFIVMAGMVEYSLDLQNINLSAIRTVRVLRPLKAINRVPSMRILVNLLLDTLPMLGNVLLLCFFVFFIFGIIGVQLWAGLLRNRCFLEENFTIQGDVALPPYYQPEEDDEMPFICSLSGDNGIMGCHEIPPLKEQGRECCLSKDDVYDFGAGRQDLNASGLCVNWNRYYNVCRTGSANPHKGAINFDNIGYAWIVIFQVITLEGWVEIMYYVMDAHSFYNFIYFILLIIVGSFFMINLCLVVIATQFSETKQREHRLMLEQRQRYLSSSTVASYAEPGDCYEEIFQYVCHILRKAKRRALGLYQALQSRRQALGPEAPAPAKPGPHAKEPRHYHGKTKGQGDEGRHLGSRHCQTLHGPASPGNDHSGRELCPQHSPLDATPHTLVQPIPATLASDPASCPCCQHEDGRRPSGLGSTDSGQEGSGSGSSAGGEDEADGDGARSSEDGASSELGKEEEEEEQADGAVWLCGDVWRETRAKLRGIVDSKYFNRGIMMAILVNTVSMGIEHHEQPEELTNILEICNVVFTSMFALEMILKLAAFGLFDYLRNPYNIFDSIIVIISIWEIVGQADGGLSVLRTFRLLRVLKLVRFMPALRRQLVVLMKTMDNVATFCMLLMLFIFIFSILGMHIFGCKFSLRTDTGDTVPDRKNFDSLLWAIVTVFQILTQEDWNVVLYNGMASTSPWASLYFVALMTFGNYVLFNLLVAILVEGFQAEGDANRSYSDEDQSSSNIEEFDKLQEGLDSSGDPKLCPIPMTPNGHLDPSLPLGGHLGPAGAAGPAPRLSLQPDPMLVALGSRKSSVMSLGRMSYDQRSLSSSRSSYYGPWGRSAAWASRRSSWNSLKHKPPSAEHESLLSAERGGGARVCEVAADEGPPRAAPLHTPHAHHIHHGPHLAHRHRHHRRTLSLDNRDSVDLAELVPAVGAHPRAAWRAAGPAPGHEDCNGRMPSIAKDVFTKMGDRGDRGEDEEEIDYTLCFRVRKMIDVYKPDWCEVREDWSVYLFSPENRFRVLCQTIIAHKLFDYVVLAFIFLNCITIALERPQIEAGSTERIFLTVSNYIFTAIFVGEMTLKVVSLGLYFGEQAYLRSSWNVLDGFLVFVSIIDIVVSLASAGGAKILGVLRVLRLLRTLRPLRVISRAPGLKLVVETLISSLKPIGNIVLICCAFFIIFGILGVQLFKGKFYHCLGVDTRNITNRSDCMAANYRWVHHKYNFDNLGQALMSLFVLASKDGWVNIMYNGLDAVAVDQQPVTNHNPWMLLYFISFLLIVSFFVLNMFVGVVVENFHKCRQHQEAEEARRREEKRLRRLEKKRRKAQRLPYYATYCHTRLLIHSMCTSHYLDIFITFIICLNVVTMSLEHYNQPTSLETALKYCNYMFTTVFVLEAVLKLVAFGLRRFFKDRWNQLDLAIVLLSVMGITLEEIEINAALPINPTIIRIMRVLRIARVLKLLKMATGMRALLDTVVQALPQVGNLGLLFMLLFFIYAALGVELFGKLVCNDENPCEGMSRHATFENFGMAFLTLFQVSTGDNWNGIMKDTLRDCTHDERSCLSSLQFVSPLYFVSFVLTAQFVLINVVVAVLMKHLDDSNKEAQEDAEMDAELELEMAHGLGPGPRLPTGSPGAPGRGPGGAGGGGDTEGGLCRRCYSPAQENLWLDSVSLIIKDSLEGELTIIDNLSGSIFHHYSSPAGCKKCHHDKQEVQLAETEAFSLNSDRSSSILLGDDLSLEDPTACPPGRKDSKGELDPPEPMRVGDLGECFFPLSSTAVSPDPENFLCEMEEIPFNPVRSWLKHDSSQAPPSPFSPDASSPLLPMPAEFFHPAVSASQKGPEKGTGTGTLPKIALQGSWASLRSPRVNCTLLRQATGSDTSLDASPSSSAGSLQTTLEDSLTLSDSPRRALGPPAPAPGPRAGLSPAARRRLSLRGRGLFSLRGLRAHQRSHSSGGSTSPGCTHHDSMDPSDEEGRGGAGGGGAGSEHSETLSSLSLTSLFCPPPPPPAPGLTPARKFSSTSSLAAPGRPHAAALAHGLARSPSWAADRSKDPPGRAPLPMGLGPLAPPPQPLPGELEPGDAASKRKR", "details": "cited from earlier work"}, "Cav3.3": {"biological_target": "T1, Cav3.3 (Mus musculus, UniProt E9Q7P2)", "T1 construct": "Western blot analysis of Cav3.3 protein levels from whole TG lysates was performed; from tissue; host or cells: mouse trigeminal ganglia (FRICT-ION model)", "T1 sequence (E9Q7P2 1-2199)": "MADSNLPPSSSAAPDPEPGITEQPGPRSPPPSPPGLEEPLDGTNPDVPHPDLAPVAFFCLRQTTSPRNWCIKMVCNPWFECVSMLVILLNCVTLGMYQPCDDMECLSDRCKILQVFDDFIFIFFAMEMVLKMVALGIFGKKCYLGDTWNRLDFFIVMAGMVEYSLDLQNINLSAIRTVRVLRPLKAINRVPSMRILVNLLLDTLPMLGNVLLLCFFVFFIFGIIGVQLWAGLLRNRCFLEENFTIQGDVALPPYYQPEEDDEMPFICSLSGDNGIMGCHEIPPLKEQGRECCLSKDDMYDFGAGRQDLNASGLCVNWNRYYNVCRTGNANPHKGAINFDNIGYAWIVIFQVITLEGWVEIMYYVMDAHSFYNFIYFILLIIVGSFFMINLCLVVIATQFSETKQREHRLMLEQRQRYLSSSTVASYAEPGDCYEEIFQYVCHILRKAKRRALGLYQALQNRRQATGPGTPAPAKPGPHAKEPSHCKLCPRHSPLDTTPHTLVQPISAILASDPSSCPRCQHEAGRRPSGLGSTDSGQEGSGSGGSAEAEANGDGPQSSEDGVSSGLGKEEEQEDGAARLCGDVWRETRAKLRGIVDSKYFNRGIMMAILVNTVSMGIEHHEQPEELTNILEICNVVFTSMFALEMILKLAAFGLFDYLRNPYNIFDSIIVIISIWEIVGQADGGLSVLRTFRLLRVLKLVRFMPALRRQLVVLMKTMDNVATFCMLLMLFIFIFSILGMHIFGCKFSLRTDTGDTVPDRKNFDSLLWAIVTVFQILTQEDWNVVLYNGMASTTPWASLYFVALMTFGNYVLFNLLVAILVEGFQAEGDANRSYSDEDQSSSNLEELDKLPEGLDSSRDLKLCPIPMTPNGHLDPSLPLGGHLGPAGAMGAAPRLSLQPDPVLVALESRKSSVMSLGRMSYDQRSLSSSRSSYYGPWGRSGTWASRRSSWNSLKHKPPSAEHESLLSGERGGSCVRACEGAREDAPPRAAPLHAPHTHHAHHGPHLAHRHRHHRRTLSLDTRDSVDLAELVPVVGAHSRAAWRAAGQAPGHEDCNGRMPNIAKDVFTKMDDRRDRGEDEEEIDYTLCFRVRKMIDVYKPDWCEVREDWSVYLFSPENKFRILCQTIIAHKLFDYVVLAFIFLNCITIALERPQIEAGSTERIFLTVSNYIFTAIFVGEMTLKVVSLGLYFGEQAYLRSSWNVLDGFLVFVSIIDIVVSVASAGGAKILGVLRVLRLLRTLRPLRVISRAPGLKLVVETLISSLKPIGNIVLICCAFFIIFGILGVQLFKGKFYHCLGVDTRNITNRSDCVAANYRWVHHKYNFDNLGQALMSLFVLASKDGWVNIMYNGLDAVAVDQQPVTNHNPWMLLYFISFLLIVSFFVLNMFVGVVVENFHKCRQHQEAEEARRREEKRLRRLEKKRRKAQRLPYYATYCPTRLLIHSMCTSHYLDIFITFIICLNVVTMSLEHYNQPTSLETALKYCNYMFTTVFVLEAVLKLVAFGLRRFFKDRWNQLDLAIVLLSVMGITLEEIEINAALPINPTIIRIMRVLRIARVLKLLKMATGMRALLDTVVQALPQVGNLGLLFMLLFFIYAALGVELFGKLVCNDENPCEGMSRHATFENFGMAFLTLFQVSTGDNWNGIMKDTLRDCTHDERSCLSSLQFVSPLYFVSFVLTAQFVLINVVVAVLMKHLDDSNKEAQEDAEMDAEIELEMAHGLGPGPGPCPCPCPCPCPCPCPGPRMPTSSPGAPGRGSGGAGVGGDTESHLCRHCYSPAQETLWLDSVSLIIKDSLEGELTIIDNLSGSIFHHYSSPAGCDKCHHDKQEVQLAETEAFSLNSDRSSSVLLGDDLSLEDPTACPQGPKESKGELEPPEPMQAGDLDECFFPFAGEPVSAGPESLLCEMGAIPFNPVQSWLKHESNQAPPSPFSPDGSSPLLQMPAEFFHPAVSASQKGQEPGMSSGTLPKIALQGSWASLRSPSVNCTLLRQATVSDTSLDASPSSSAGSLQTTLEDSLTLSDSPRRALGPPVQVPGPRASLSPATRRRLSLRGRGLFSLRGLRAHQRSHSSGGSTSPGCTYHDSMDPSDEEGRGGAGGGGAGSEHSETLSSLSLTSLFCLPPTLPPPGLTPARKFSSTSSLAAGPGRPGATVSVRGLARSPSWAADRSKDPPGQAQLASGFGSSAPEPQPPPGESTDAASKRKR", "assay": "Western blot of Cav3.3 protein levels in whole trigeminal ganglia lysates after peptide injection", "type": "in vivo", "details": "FRICT-ION mice, whole TG lysates, four hours post injection, normalized to actin", "method": "Twelve male and female mice (8-10 weeks old, six mice per sex) were subject to the FRICT-ION model of trigeminal neuropathic pain. Three mice of each sex were administered TAT-C3P peptide (SEQ ID NO:1) and the remaining mice were administered TAT-C3D (SEQ ID NO:2) following the methods described above. Four hours post injection, mice were euthanized with pentobarbital (50 mg/kg) and both ipsilateral and contralateral trigeminal ganglia (TG) were removed. TG were washed immediately in PBS and stored at −80° C.\nThe TG for each of the four groups were pooled together (n=3) for protein extraction and homogenized using a pestle and 500 μL of 1×RIPA buffer (Thermo Fisher Scientific, Inc., Waltham, Mass.). Samples were put on a rocking shaker for two hours and then centrifuged, and supernatant removed to a new tube. Samples were assayed for total protein. […] Samples were then prepared for electrophoresis by mixing with 2× sample buffer and boiling for five minutes at 100° C. for denaturation.\nProteins were loaded on a 12% Tris-Glycine polyacrylamide gradient gel (Bio-Rad Laboratories, Inc., Hercules, Calif.) and transferred to a PVDF membrane (MilliporeSigma, Burlington, Mass.). […] Signal intensity was analyzed using ImageJ (Schneider et al., Nature Methods 9:671-675 (2012)) for comparisons.\nMale and female mice were analyzed separately. […]"}}, "note": "Ends that are not written are not given here."}
{"compound": "GRKKRRQRRRPQEESNKEAREDAELDAEIELEMAQG [TAT-C3P]", "values": [{"measurement": "side effects", "setting": "[1]", "result": "no major side effects"}, {"measurement": "CNS penetration following intraperitoneal injection", "setting": "[2]; FRICT-ION mice", "result": "penetrates the central nervous system"}]}
{"compound": "GRKKRRQRRRPQEESNKEAREDAELDAEIELEMAQGHHHHHH [His-tagged TAT-C3P]", "values": [{"measurement": "His-tag bands in TG and medullary tissues", "setting": "[2]; male FRICT-ION mice, tissues harvested four hours post-injection", "result": "Bands were detected"}]}
{"compound": "CCC1(C)CC(=O)NC1=O", "note": "(stereo not drawn) [ethosuximide]", "values": [{"measurement": "outcome of clinical trial for neuropathic pain", "setting": "T-type Ca2+ channels", "result": "halted due to adverse events"}]}
{"compound": "TAT-C3D: control peptide that does not block Cav3.3 channels, GRKKRRQRRRPQAVSSPARSGEPLHALSPRGTARSP (GRKKRRQRRRPQAVSSPARSGEPLHALSPRGTARSP; unkown; TAT-C3D (1)..(36))", "values": [{"measurement": "inhibition of Cav3.3", "setting": "Cav3.3 channels", "result": "does not inhibit Cav3.3"}, {"measurement": "Cav3.3 protein levels in the trigeminal ganglia", "setting": "Cav3.3", "result": "strongly present"}]}
